Laboratory results published in patent EP0252525B1, “Alpha-amylase assay using modified oligosaccharide and process for producing said modified oligosaccharide” (WAKO PURE CHEMICAL INDUSTRIES, LTD, priority 1986, dated 1988).
Several values for one entry are separate records, joined by “and”; a condition that tells them apart may be missing. Equal entries are not always repeated.

Experiments:
Assay type in all cases: biochemical
[1] = molecular target: T1, human salivary α-amylase (HSA) (Homo sapiens, UniProt P0DUB6); assay: Hydrolysis rate of substrates by α-amylase (relative to G5P); settings: substrate 1.0 mM, pH 7, value of G5P taken as 1
T1 sequence (P0DUB6 16-511): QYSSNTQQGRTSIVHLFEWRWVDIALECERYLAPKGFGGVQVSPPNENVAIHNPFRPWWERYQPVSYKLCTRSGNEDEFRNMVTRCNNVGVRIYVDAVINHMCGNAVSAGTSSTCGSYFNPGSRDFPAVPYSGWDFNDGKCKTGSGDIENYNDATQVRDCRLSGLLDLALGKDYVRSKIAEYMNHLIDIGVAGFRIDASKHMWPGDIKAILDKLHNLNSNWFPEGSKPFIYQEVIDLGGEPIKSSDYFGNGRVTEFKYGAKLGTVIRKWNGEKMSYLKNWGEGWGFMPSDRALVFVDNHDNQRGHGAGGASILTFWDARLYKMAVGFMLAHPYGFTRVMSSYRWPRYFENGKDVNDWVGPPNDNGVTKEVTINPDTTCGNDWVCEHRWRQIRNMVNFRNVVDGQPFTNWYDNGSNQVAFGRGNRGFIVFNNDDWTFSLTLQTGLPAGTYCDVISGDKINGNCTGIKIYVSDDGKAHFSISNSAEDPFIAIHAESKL
Experimental: (§1) The above-mentioned advantages can be shown by using the following oligosaccharides: [drawing 6] n = 2: BG4P n = 3: BG5P (the present invention) n = 4: BG6P n = 5: BG7P [drawing 7] n = 2: G4P n = 3: G5P (standard) n = 4: G6P n = 5: G7P [drawing 8] n = 2: BDG4P n = 3: BDG5P n = 4: BDG6P n = 5: BDG7P The hydrolysis rate is measured by using human pancreatic α-amylase (HPA) or human salivary α-amylase (HSA) for each substrate (1.0 mM) at pH 7, and evaluating by means of relative values by taking the value of G5P as 1.

[2] = molecular target: T2, human pancreatic α-amylase (HPA) (Homo sapiens, UniProt P04746); assay: as above; settings: substrate 1.0 mM, pH 7, value of G5P taken as 1
T2 sequence (P04746 16-511): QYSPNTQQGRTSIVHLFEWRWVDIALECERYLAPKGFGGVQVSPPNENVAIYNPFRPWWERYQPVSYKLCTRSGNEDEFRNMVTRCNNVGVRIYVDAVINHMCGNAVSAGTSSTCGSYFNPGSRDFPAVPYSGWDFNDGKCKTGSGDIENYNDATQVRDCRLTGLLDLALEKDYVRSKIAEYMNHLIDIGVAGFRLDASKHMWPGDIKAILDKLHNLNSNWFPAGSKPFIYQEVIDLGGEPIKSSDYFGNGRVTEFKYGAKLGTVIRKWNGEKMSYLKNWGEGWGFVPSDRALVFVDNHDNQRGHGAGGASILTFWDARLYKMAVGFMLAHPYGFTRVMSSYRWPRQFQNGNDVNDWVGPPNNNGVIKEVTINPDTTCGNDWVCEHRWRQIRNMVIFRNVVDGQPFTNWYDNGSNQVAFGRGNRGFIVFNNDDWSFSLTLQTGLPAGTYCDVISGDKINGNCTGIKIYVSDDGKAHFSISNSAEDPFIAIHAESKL
Experimental: as §1

HPA [3] = molecular target: T3, HPA (Homo sapiens, UniProt P04746); assay: Km determination (Lineweaver-Burk plot, products measured by HPLC); settings: 50 mM BES/NaOH buffer pH 7.6, 37°C, 5 min
T3 sequence (P04746 16-511): T2 sequence (P04746 16-511)
Experimental: The amounts of the products were measured with HPLC.

HSA = molecular target: T4, HSA (Homo sapiens, UniProt P0DUB6); assay: Binding mode (distribution of hydrolysis products) by HPLC; settings: for Hydrolysis product G2P: share of product G2P; for Hydrolysis product G3P: share of product G3P; for Hydrolysis product G4P: share of product G4P; for Hydrolysis product GP: share of product GP
T4 sequence (P0DUB6 16-511): T1 sequence (P0DUB6 16-511)
Experimental: (§2) The binding mode of each substrate were measured with high-performance liquid chromatography (HPLC) as described above.

HPA [4] = molecular target: T3, HPA; assay: as above; settings: for Hydrolysis product G2P: share of product G2P; for Hydrolysis product G3P: share of product G3P; for Hydrolysis product G4P: share of product G4P; for Hydrolysis product GP: share of product GP
Experimental: as §2

glucoamylase = assay: Action of glucoamylase on the modified oligosaccharide

O=[N+]([O-])c1ccc(O[C@H]2O[C@H](CO)[C@@H](O[C@H]3O[C@H](CO)[C@@H](O[C@H]4O[C@H](CO)[C@@H](O[C@H]5O[C@H](CO)[C@@H](O[C@H]6O[C@H](COCc7ccccc7)[C@@H](O)[C@H](O)[C@H]6O)[C@H](O)[C@H]5O)[C@H](O)[C@H]4O)[C@H](O)[C@H]3O)[C@H](O)[C@H]2O)cc1 [BG5P, p-nitrophenyl O-(6-O-benzyl)-α-D-glycopyranosyl-(1→4)-O-α-D-glucopyranosyl-(1→4)-O-α-D-glucopyranosyl-(1→4)-O-α-D-glucopyranosyl-(1→4)-α-D-glucopyranoside]
hydrolysis rate (relative value) [1]: 1.4
hydrolysis rate (relative value) [2]: 1.4
Km (HPA [3]): 110 µM and 106 µM
Hydrolysis product G2P (HSA): 98%
Hydrolysis product G3P (HSA): 0%
Hydrolysis product G4P (HSA): 0%
Hydrolysis product GP (HSA): 2%
Hydrolysis product G2P (HPA [4]): 95%
Hydrolysis product G3P (HPA [4]): 0%
Hydrolysis product G4P (HPA [4]): 0%
Hydrolysis product GP (HPA [4]): 5%
action of glucoamylase on the substrate (glucoamylase): not acted by glucoamylase

O=[N+]([O-])c1ccc(O[C@H]2O[C@H](CO)[C@@H](O[C@H]3O[C@H](CO)[C@@H](O[C@H]4O[C@H](CO)[C@@H](O[C@H]5O[C@H](CO)[C@@H](O[C@H]6O[C@H](CO)[C@@H](O[C@H]7O[C@H](CO)[C@@H](O[C@H]8O[C@@H]9COC(c%10ccccc%10)O[C@H]9[C@H](O)[C@H]8O)[C@H](O)[C@H]7O)[C@H](O)[C@H]6O)[C@H](O)[C@H]5O)[C@H](O)[C@H]4O)[C@H](O)[C@H]3O)[C@H](O)[C@H]2O)cc1 (stereo partly drawn) [BDG7P]
hydrolysis rate (relative value) [1]: 1.0
hydrolysis rate (relative value) [2]: 1.1
Km (HPA [3]): 86 µM and 88.1 µM
Hydrolysis product G2P (HSA): 55%
Hydrolysis product G3P (HSA): 25%
Hydrolysis product G4P (HSA): 15%
Hydrolysis product GP (HSA): 5%
Hydrolysis product G2P (HPA [4]): 48%
Hydrolysis product G3P (HPA [4]): 22%
Hydrolysis product G4P (HPA [4]): 13%
Hydrolysis product GP (HPA [4]): 7%

O=[N+]([O-])c1ccc(O[C@H]2O[C@H](CO)[C@@H](O[C@H]3O[C@H](CO)[C@@H](O[C@H]4O[C@H](CO)[C@@H](O[C@H]5O[C@H](CO)[C@@H](O[C@H]6O[C@H](CBr)[C@@H](O)[C@H](O)[C@H]6O)[C@H](O)[C@H]5O)[C@H](O)[C@H]4O)[C@H](O)[C@H]3O)[C@H](O)[C@H]2O)cc1 [BrG5P]
action of glucoamylase on the substrate (glucoamylase): not acted by glucoamylase
